In this assay the target is T1, CaM (Bos taurus, UniProt P62157).
T1 construct: made in house; host or cells: E. coli BL21 (DE3)
In words: Pull-down assay with immobilized protein and LSM libraries. The conditions noted are these: H12 library; 1:2 stoichiometry assumed; read-out: Surface mapping KD (apparent). Type of assay: binding, bovine. The protocol:
Pull-down assays with immobilized test proteins and foldameric LSM libraries were carried out. Proteins were equilibrated with LSM probes, and equilibrium bound fractions (FB) were determined from the unbound fractions measured by HPLC-MS methods. Hits were corrected with background binding of the resin. The protocol allowed all binding events to equilibrate irrespective of affinity, specificity, and binding kinetics. This was essential to judge overall druggability and promiscuity. Importantly, the concentration of protein and the total concentration of foldameric LSMs were equimolar, which minimized competition between the probes. This experimental setup approximated independent binding of individual library members. Results were visualized as heat maps of dissociation constants (Fig. 3).
Pull-down assay and data analysis
Pull-down assay. LSM sublibraries were screened separately as previously described.(2) Experiments were performed in the following buffers: (i) 20 mM pH 7.4 HEPES, 150 mM NaCl, 5 mM CaCl2 for CaM; (ii) 50 mM pH 7.4 HEPES, 150 mM NaCl, 1 mM TCEP, 1 mM CaCl2 for S100 proteins; (iii) 20 mM pH 7.4 HEPES, 150 mM NaCl, 1 mM TCEP for Gal-1 and (iv) 20 mM pH 7.4 HEPES, 150 mM NaCl for RecQ-WH. Assays were performed in paper filter spin cups (Thermo Scientific) with sample volumes of 100 µl. Hexahistidine-tagged proteins were immobilized on previously washed Co-NTA resin (TALON, Takara Bio USA, Inc., […]
LSM sublibrary was added, in which each of the 64 library members were used at a concentration of 1 µM. Samples were incubated at room temperature for 30 min with shaking at 100 rpm. Then, samples were centrifuged at 1000 rpm for 2 min and washed with 100 µl pull-down buffer to remove unbound compounds.
The control experiments were performed using the same compounds and the resin but without the immobilized protein. In case of competitive assays, competitor peptides were added to LSM sublibrary samples in 200 µM final concentration. In the case of Gal-1, lactose (competitor) was used in a concentration of 10 mM. Experiments were performed at least twice. Mean […]
LC-MS methods and parameters. HPLC/ESI-MS analysis was used to characterize the samples from the pull-down assay. LC-MS analysis was performed with a Thermo Scientific Dionex UltiMate 3000 HPLC system interfaced to an LTQ ion trap mass spectrometer (Thermo Electron Corp., San Jose, CA, USA). Samples were injected onto an Aeris Widepore XB-C18 (250 x 4.6 mm) analytical HPLC column using gradient elution 5-80 % solution B during 25 minutes. For pull-down samples, eluent composition was 0.1% acetic acid in distilled water (Solution A) and 0.1% acetic acid in acetonitrile (solution B). Mass spectra were acquired in full scan mode from 200 to 2000 m/z range. For overlapping peaks, selective reaction monitoring (SRM) was […]
MS data analysis. Thermo Xcalibur 2.2 software was used for peak identification and integration. The majority of the foldameric fragments could be resolved independently via HPLC-MS/MS measurements based on molecular weight, MS fragmentation pattern and retention time. Peaks of some foldamers with β3-hIle or β3-hLeu in position R2 could not be resolved, these were integrated and averaged. In the processing method, each sample component was associated to a chromatographic peak based on previously identified mass (m/z) and retention time (ref (2) and Table S7-10). Using ICIS peak detection algorithm, the general detection and integration criteria were: smoothing points: 5, baseline window: 80, area noise factor: 5, peak noise factor: 10. Using these processing setups, all raw data files were reprocessed together and analyzed. Errors in peak identification during the automatic processing were corrected manually.
Calculation of the discussed parameters
1. Bound fractions (FB.) were calculated from the HPLC-MS intensity loss of the LSM probes compared to the control where no protein was immobilized to the resin: […]
With `C[C@@H](CC(=O)N[C@H]1CCC[C@@H]1C(=O)N[C@H]1CCC[C@@H]1C(N)=O)NC(=O)[C@H]1CCC[C@@H]1NC(=O)[C@H]1CCC[C@@H]1NC(=O)C[C@H](CC(N)=O)NC(=O)[C@H]1CCC[C@@H]1NC(=O)[C@H]1CCC[C@@H]1N` [H12 NA], the Kd was 447 µM. With `NC(=O)C[C@@H](CC(=O)N[C@H]1CCC[C@@H]1C(=O)N[C@H]1CCC[C@@H]1C(=O)N[C@@H](CC(=O)O)CC(=O)N[C@H]1CCC[C@@H]1C(=O)N[C@H]1CCC[C@@H]1C(N)=O)NC(=O)[C@H]1CCC[C@@H]1NC(=O)[C@H]1CCC[C@@H]1N` [H12 ND], the Kd worked out at 400 µM.

`CC[C@H](C)[C@@H](CC(=O)N[C@H]1CCC[C@@H]1C(=O)N[C@H]1CCC[C@@H]1C(N)=O)NC(=O)[C@H]1CCC[C@@H]1NC(=O)[C@H]1CCC[C@@H]1NC(=O)C[C@H](CC(N)=O)NC(=O)[C@H]1CCC[C@@H]1NC(=O)[C@H]1CCC[C@@H]1N` [H12 NI]: the Kd stood at 214 µM. As to `CC(C)C[C@@H](CC(=O)N[C@H]1CCC[C@@H]1C(=O)N[C@H]1CCC[C@@H]1C(N)=O)NC(=O)[C@H]1CCC[C@@H]1NC(=O)[C@H]1CCC[C@@H]1NC(=O)C[C@H](CC(N)=O)NC(=O)[C@H]1CCC[C@@H]1NC(=O)[C@H]1CCC[C@@H]1N` [H12 NL], the Kd came out at 214 µM. The figure for `CSCC[C@@H](CC(=O)N[C@H]1CCC[C@@H]1C(=O)N[C@H]1CCC[C@@H]1C(N)=O)NC(=O)[C@H]1CCC[C@@H]1NC(=O)[C@H]1CCC[C@@H]1NC(=O)C[C@H](CC(N)=O)NC(=O)[C@H]1CCC[C@@H]1NC(=O)[C@H]1CCC[C@@H]1N` [H12 NM] is 378 µM; for `CC(C)[C@@H](CC(=O)N[C@H]1CCC[C@@H]1C(=O)N[C@H]1CCC[C@@H]1C(N)=O)NC(=O)[C@H]1CCC[C@@H]1NC(=O)[C@H]1CCC[C@@H]1NC(=O)C[C@H](CC(N)=O)NC(=O)[C@H]1CCC[C@@H]1NC(=O)[C@H]1CCC[C@@H]1N` [H12 NV] it is 460 µM.

Turning to `NC(=O)C[C@@H](CC(=O)N[C@H]1CCC[C@@H]1C(=O)N[C@H]1CCC[C@@H]1C(=O)N[C@H](CC(=O)N[C@H]1CCC[C@@H]1C(=O)N[C@H]1CCC[C@@H]1C(N)=O)Cc1ccc(O)cc1)NC(=O)[C@H]1CCC[C@@H]1NC(=O)[C@H]1CCC[C@@H]1N` [H12 NY], the Kd came out at 364 µM.

For `NC(=O)CC[C@@H](CC(=O)N[C@H]1CCC[C@@H]1C(=O)N[C@H]1CCC[C@@H]1C(=O)N[C@@H](CC(=O)O)CC(=O)N[C@H]1CCC[C@@H]1C(=O)N[C@H]1CCC[C@@H]1C(N)=O)NC(=O)[C@H]1CCC[C@@H]1NC(=O)[C@H]1CCC[C@@H]1N` [H12 QD], the Kd was 433 µM.

`NC(=O)CC[C@@H](CC(=O)N[C@H]1CCC[C@@H]1C(=O)N[C@H]1CCC[C@@H]1C(=O)N[C@@H](CCC(=O)O)CC(=O)N[C@H]1CCC[C@@H]1C(=O)N[C@H]1CCC[C@@H]1C(N)=O)NC(=O)[C@H]1CCC[C@@H]1NC(=O)[C@H]1CCC[C@@H]1N` [H12 QE]: the Kd is 474 µM.

In the case of `CC[C@H](C)[C@@H](CC(=O)N[C@H]1CCC[C@@H]1C(=O)N[C@H]1CCC[C@@H]1C(N)=O)NC(=O)[C@H]1CCC[C@@H]1NC(=O)[C@H]1CCC[C@@H]1NC(=O)C[C@H](CCC(N)=O)NC(=O)[C@H]1CCC[C@@H]1NC(=O)[C@H]1CCC[C@@H]1N` [H12 QI], the Kd stood at 263 µM.

As to `CC(C)C[C@@H](CC(=O)N[C@H]1CCC[C@@H]1C(=O)N[C@H]1CCC[C@@H]1C(N)=O)NC(=O)[C@H]1CCC[C@@H]1NC(=O)[C@H]1CCC[C@@H]1NC(=O)C[C@H](CCC(N)=O)NC(=O)[C@H]1CCC[C@@H]1NC(=O)[C@H]1CCC[C@@H]1N` [H12 QL], the Kd came out at 263 µM. For the compound `CSCC[C@@H](CC(=O)N[C@H]1CCC[C@@H]1C(=O)N[C@H]1CCC[C@@H]1C(N)=O)NC(=O)[C@H]1CCC[C@@H]1NC(=O)[C@H]1CCC[C@@H]1NC(=O)C[C@H](CCC(N)=O)NC(=O)[C@H]1CCC[C@@H]1NC(=O)[C@H]1CCC[C@@H]1N` [H12 QM], the Kd was determined as 364 µM. With `C[C@@H](O)[C@@H](CC(=O)N[C@H]1CCC[C@@H]1C(=O)N[C@H]1CCC[C@@H]1C(N)=O)NC(=O)[C@H]1CCC[C@@H]1NC(=O)[C@H]1CCC[C@@H]1NC(=O)C[C@H](CCC(N)=O)NC(=O)[C@H]1CCC[C@@H]1NC(=O)[C@H]1CCC[C@@H]1N` [H12 QT], the Kd stood at 447 µM.

Source of the values: article PMC8162404, “Proteomimetic surface fragments distinguish targets by function” (Chemical Science, 2020).
